Literature values, collected in patent publication US20190224051A1, “ETNESS INDICATOR WITH HARDENERS AND CRYSTALLIZERS” (The Procter & Gamble Company, priority 2018, published 2019).

Settings: Table 2, stabilizers

Compound: O=P(O)(O)OP(=O)(O)O [Pyrophosphoric Acid]
- pKa (1): 1.5
- pKa (2): 2.4
- pKa (4): 9.2
